Test: xn = mol fraction of the nth substance listed
Details: for surface tension liquid-gas: Drop volume; for viscosity / speed of sound / mass density: 99 kPa, Liquid; for viscosity: Capillary tube (Ostwald / Ubbelohde) method; for speed of sound: Frequency=3 MHz, Sing-around technique in a fixed-path interferometer; for mass density: Vibrating tube method

CCCC[n+]1ccccc1.F[B-](F)(F)F [1-butylpyridinium tetrafluoroborate] + O
Details	mass density [kg/m3]	speed of sound [m/s]	surface tension liquid-gas [mN/m]	viscosity [mPa·s]
293.15 K, x1 = 0.0115	–	–	57.1	–
293.15 K, x1 = 0.0165	1028.6	1539	–	–
293.15 K, x1 = 0.0185	–	–	54.3	–
293.15 K, x1 = 0.0271	–	–	52.5	–
293.15 K, x1 = 0.0372	–	–	51.3	–
293.15 K, x1 = 0.0379	1058	1572.7	–	–
293.15 K, x1 = 0.0456	–	–	50.7	–
293.15 K, x1 = 0.047	–	–	–	1.379
293.15 K, x1 = 0.0863	1100.2	1606.7	–	–
293.15 K, x1 = 0.0942	–	–	49.2	–
293.15 K, x1 = 0.095	–	–	–	1.806
293.15 K, x1 = 0.101	1109.3	1612.3	–	–
293.15 K, x1 = 0.134	1125.6	1620.9	–	–
293.15 K, x1 = 0.1907	–	–	48.7	–
293.15 K, x1 = 0.2001	–	–	–	3.439
293.15 K, x1 = 0.243	1158.2	1630	–	–
293.15 K, x1 = 0.2846	–	–	48.3	–
293.15 K, x1 = 0.289	1167	1629.4	–	–
293.15 K, x1 = 0.2912	–	–	–	5.459
293.15 K, x1 = 0.34	–	–	48.3	–
293.15 K, x1 = 0.3456	1175.6	1627.7	–	–
293.15 K, x1 = 0.3866	–	–	48	–
293.15 K, x1 = 0.4015	–	–	–	10.4
293.15 K, x1 = 0.4217	1184.5	1624.5	–	–
293.15 K, x1 = 0.4807	–	–	–	15.2
293.15 K, x1 = 0.486	–	–	47.7	–
293.15 K, x1 = 0.5485	1195.4	1619.7	–	–
293.15 K, x1 = 0.5777	–	–	47.5	–
293.15 K, x1 = 0.5815	–	–	–	23.72
293.15 K, x1 = 0.6029	1199	1618	–	–
293.15 K, x1 = 0.6641	–	–	–	34.53
293.15 K, x1 = 0.6943	–	–	47.3	–
293.15 K, x1 = 0.7232	1205.7	1614.9	–	–
293.15 K, x1 = 0.7779	–	–	47	–
293.15 K, x1 = 0.7855	–	–	–	67.74
293.15 K, x1 = 0.8005	1209.3	1613.5	–	–
293.15 K, x1 = 0.835	–	–	46.8	–
293.15 K, x1 = 0.8575	1211.7	1612.8	–	–
293.15 K, x1 = 0.8875	–	–	–	121.1
293.15 K, x1 = 0.925	–	–	46.8	–
293.15 K, x1 = 0.9305	–	–	–	149.6
293.15 K, x1 = 0.9315	1214.5	1612	–	–
293.15 K, x1 = 0.9705	–	–	–	189.6
293.15 K, x1 = 1	1217.1	1611.5	46.9	220.5
303.15 K, x1 = 0.0115	–	–	56.4	–
303.15 K, x1 = 0.0165	1025.3	1552	–	–
303.15 K, x1 = 0.0185	–	–	54	–
303.15 K, x1 = 0.0271	–	–	52.1	–
303.15 K, x1 = 0.0372	–	–	51	–
303.15 K, x1 = 0.0379	1053.9	1576.9	–	–
303.15 K, x1 = 0.0456	–	–	50.4	–
303.15 K, x1 = 0.047	–	–	–	1.082
303.15 K, x1 = 0.0863	1094.8	1600.1	–	–
303.15 K, x1 = 0.0942	–	–	49.1	–
303.15 K, x1 = 0.095	–	–	–	1.333
303.15 K, x1 = 0.101	1103.7	1603.2	–	–
303.15 K, x1 = 0.134	1119.5	1608.1	–	–
303.15 K, x1 = 0.1907	–	–	48.5	–
303.15 K, x1 = 0.2001	–	–	–	2.475
303.15 K, x1 = 0.243	1151.3	1610.7	–	–
303.15 K, x1 = 0.2846	–	–	48.1	–
303.15 K, x1 = 0.289	1159.9	1608.8	–	–
303.15 K, x1 = 0.2912	–	–	–	4.217
303.15 K, x1 = 0.34	–	–	47.9	–
303.15 K, x1 = 0.3456	1168.3	1606.1	–	–
303.15 K, x1 = 0.3866	–	–	47.6	–
303.15 K, x1 = 0.4015	–	–	–	7.329
303.15 K, x1 = 0.4217	1177.2	1602.7	–	–
303.15 K, x1 = 0.4807	–	–	–	10.67
303.15 K, x1 = 0.486	–	–	47.3	–
303.15 K, x1 = 0.5485	1188	1597.4	–	–
303.15 K, x1 = 0.5777	–	–	47	–
303.15 K, x1 = 0.5815	–	–	–	15.59
303.15 K, x1 = 0.6029	1191.7	1595.6	–	–
303.15 K, x1 = 0.6641	–	–	–	22.31
303.15 K, x1 = 0.6943	–	–	46.7	–
303.15 K, x1 = 0.7232	1198.5	1592.3	–	–
303.15 K, x1 = 0.7779	–	–	46.5	–
303.15 K, x1 = 0.7855	–	–	–	41.77
303.15 K, x1 = 0.8005	1202.2	1590.7	–	–
303.15 K, x1 = 0.835	–	–	46.2	–
303.15 K, x1 = 0.8575	1204.6	1589.7	–	–
303.15 K, x1 = 0.8875	–	–	–	72.76
303.15 K, x1 = 0.925	–	–	46.2	–
303.15 K, x1 = 0.9305	–	–	–	90.38
303.15 K, x1 = 0.9315	1207.6	1588.9	–	–
303.15 K, x1 = 0.9705	–	–	–	106.5
303.15 K, x1 = 1	1210.3	1588.1	46.3	119.5

From the NIST ThermoML archive (doi:10.1016/j.jct.2016.04.003)
